{
  "source": "ChEMBL document CHEMBL3045321",
  "about": "“Sensitivity to iprodione, difenoconazole and fludioxonil of Rhizoctonia cerealis isolates collected from wheat in China” (Crop Prot, 2011)",
  "type_in_all_cases": "functional, organism-based",
  "key": {"Ceratobasidium cereale [1]": {"system": "Ceratobasidium cereale", "assay": "Antifungal activity against Ceratobasidium cereale iprodione-sensitive wheat field isolate HN49 assessed as mycelial growth inhibition in potato dextrose agar media at 25 degC measured after 3 days", "conditions": "isolate HN49, 72 h"}, "Ceratobasidium cereale [2]": {"system": "Ceratobasidium cereale", "assay": "Antifungal activity against Ceratobasidium cereale iprodione-sensitive wheat field isolate HN100 assessed as mycelial growth inhibition in potato dextrose agar media at 25 degC measured after 3 days", "conditions": "isolate HN100, 72 h"}, "Ceratobasidium cereale [3]": {"system": "Ceratobasidium cereale", "assay": "Antifungal activity against Ceratobasidium cereale two generation induced iprodione-resistant wheat field isolate HN100R assessed as mycelial growth inhibition in potato dextrose agar media at 25 degC measured after 3 days", "conditions": "72 h"}, "Ceratobasidium cereale [4]": {"system": "Ceratobasidium cereale", "assay": "Antifungal activity against Ceratobasidium cereale two generation induced iprodione-resistant wheat field isolate HQ3R assessed as mycelial growth inhibition in potato dextrose agar media at 25 degC measured after 3 days", "conditions": "72 h"}, "Ceratobasidium cereale [5]": {"system": "Ceratobasidium cereale", "assay": "Antifungal activity against Ceratobasidium cereale two generation induced iprodione-resistant wheat field isolate HL64R assessed as mycelial growth inhibition in potato dextrose agar media at 25 degC measured after 3 days", "conditions": "72 h"}, "Ceratobasidium cereale [6]": {"system": "Ceratobasidium cereale", "assay": "Antifungal activity against Ceratobasidium cereale two generation induced iprodione-resistant wheat field isolate HN49R assessed as mycelial growth inhibition in potato dextrose agar media at 25 degC measured after 3 days", "conditions": "72 h"}, "Ceratobasidium cereale [7]": {"system": "Ceratobasidium cereale", "assay": "Antifungal activity against Ceratobasidium cereale two generation induced iprodione-resistant wheat field isolate HQ12R assessed as mycelial growth inhibition in potato dextrose agar media at 25 degC measured after 3 days", "conditions": "72 h"}, "Ceratobasidium cereale [8]": {"system": "Ceratobasidium cereale", "assay": "Antifungal activity against Ceratobasidium cereale two generation induced iprodione-resistant wheat field isolate HD10R assessed as mycelial growth inhibition in potato dextrose agar media at 25 degC measured after 3 days", "conditions": "72 h"}, "Ceratobasidium cereale [9]": {"system": "Ceratobasidium cereale", "assay": "Antifungal activity against Ceratobasidium cereale iprodione-sensitive wheat field isolate HD10 assessed as mycelial growth inhibition in potato dextrose agar media at 25 degC measured after 3 days", "conditions": "isolate HD10, 72 h"}, "Ceratobasidium cereale [10]": {"system": "Ceratobasidium cereale", "assay": "Antifungal activity against Ceratobasidium cereale iprodione-sensitive wheat field isolate HQ12 assessed as mycelial growth inhibition in potato dextrose agar media at 25 degC measured after 3 days", "conditions": "isolate HQ12, 72 h"}, "Ceratobasidium cereale [11]": {"system": "Ceratobasidium cereale", "assay": "Antifungal activity against Ceratobasidium cereale iprodione-sensitive wheat field isolate HL64 assessed as mycelial growth inhibition in potato dextrose agar media at 25 degC measured after 3 days", "conditions": "isolate HL64, 72 h"}, "Ceratobasidium cereale [12]": {"system": "Ceratobasidium cereale", "assay": "Antifungal activity against Ceratobasidium cereale wheat field isolate assessed as mycelial growth inhibition at 25 degC measured after 3 days", "conditions": "72 h"}, "Ceratobasidium cereale [13]": {"system": "Ceratobasidium cereale", "assay": "Antifungal activity against Ceratobasidium cereale two generation induced iprodione-resistant wheat field isolate HQ31R assessed as mycelial growth inhibition in potato dextrose agar media at 25 degC measured after 3 days", "conditions": "72 h"}, "Ceratobasidium cereale [14]": {"system": "Ceratobasidium cereale", "assay": "Antifungal activity against Ceratobasidium cereale iprodione-sensitive wheat field isolate HQ31 assessed as mycelial growth inhibition in potato dextrose agar media at 25 degC measured after 3 days", "conditions": "isolate HQ31, 72 h"}, "Ceratobasidium cereale [15]": {"system": "Ceratobasidium cereale", "assay": "Antifungal activity against Ceratobasidium cereale iprodione-sensitive wheat field isolate HQ3 assessed as mycelial growth inhibition in potato dextrose agar media at 25 degC measured after 3 days", "conditions": "isolate HQ3, 72 h"}, "Ceratobasidium cereale [16]": {"system": "Ceratobasidium cereale", "assay": "Antifungal activity against Ceratobasidium cereale wheat field isolate assessed as mycelial growth inhibition at 10 ug/mL in potato dextrose agar media 25 degC measured after 5 days"}},
  "note": "Calls of active or inactive are those of the source. No cut-off for these calls is given here.",
  "data": [
    {"molecule": "N#Cc1c[nH]cc1-c1cccc2c1OC(F)(F)O2", "note": "[FLUDIOXONIL]", "values": [
      {"measurement": "EC50", "setting": "Ceratobasidium cereale [1]", "value": 0.026, "unit": "µg/mL"},
      {"measurement": "EC50", "setting": "Ceratobasidium cereale [2]", "value": 0.024, "unit": "µg/mL"},
      {"measurement": "EC50", "setting": "Ceratobasidium cereale [3]", "value": "> 100", "unit": "µg/mL"},
      {"measurement": "EC50", "setting": "Ceratobasidium cereale [4]", "value": "> 100", "unit": "µg/mL"},
      {"measurement": "EC50", "setting": "Ceratobasidium cereale [5]", "value": "> 100", "unit": "µg/mL"},
      {"measurement": "EC50", "setting": "Ceratobasidium cereale [6]", "value": "> 100", "unit": "µg/mL"},
      {"measurement": "EC50", "setting": "Ceratobasidium cereale [7]", "value": "> 100", "unit": "µg/mL"},
      {"measurement": "EC50", "setting": "Ceratobasidium cereale [8]", "value": "> 100", "unit": "µg/mL"},
      {"measurement": "EC50", "setting": "Ceratobasidium cereale [9]", "value": 0.05, "unit": "µg/mL"},
      {"measurement": "EC50", "setting": "Ceratobasidium cereale [10]", "value": 0.032, "unit": "µg/mL"},
      {"measurement": "EC50", "setting": "Ceratobasidium cereale [11]", "value": 0.022, "unit": "µg/mL"},
      {"measurement": "EC50", "setting": "Ceratobasidium cereale [12]", "value": 0.033, "unit": "µg/mL"},
      {"measurement": "EC50", "setting": "Ceratobasidium cereale [13]", "value": "> 100", "unit": "µg/mL"},
      {"measurement": "EC50", "setting": "Ceratobasidium cereale [14]", "value": 0.026, "unit": "µg/mL"},
      {"measurement": "EC50", "setting": "Ceratobasidium cereale [15]", "value": 0.015, "unit": "µg/mL"}
    ]},
    {"molecule": "CC(C)NC(=O)N1CC(=O)N(c2cc(Cl)cc(Cl)c2)C1=O", "note": "[IPRODIONE]", "values": [
      {"measurement": "EC50", "setting": "Ceratobasidium cereale [1]", "value": 0.481, "unit": "µg/mL"},
      {"measurement": "EC50", "setting": "Ceratobasidium cereale [2]", "value": 0.249, "unit": "µg/mL"},
      {"measurement": "EC50", "setting": "Ceratobasidium cereale [3]", "value": "> 100", "unit": "µg/mL"},
      {"measurement": "EC50", "setting": "Ceratobasidium cereale [4]", "value": "> 100", "unit": "µg/mL"},
      {"measurement": "EC50", "setting": "Ceratobasidium cereale [5]", "value": "> 100", "unit": "µg/mL"},
      {"measurement": "EC50", "setting": "Ceratobasidium cereale [6]", "value": "> 100", "unit": "µg/mL"},
      {"measurement": "EC50", "setting": "Ceratobasidium cereale [7]", "value": "> 100", "unit": "µg/mL"},
      {"measurement": "EC50", "setting": "Ceratobasidium cereale [8]", "value": "> 100", "unit": "µg/mL"},
      {"measurement": "EC50", "setting": "Ceratobasidium cereale [9]", "value": 0.46, "unit": "µg/mL"},
      {"measurement": "EC50", "setting": "Ceratobasidium cereale [10]", "value": 0.725, "unit": "µg/mL"},
      {"measurement": "EC50", "setting": "Ceratobasidium cereale [11]", "value": 0.372, "unit": "µg/mL"},
      {"measurement": "Activity", "setting": "Ceratobasidium cereale [16]", "value": "Active"},
      {"measurement": "EC50", "setting": "Ceratobasidium cereale [12]", "value": 0.419, "unit": "µg/mL"},
      {"measurement": "EC50", "setting": "Ceratobasidium cereale [13]", "value": "> 100", "unit": "µg/mL"},
      {"measurement": "EC50", "setting": "Ceratobasidium cereale [14]", "value": 0.35, "unit": "µg/mL"},
      {"measurement": "EC50", "setting": "Ceratobasidium cereale [15]", "value": 0.357, "unit": "µg/mL"}
    ]},
    {"molecule": "CC1COC(Cn2cncn2)(c2ccc(Oc3ccc(Cl)cc3)cc2Cl)O1", "note": "(stereo unspecified) [DIFENOCONAZOLE]", "values": [
      {"measurement": "EC50", "setting": "Ceratobasidium cereale [1]", "value": 0.07, "unit": "µg/mL"},
      {"measurement": "EC50", "setting": "Ceratobasidium cereale [2]", "value": 0.095, "unit": "µg/mL"},
      {"measurement": "EC50", "setting": "Ceratobasidium cereale [3]", "value": 0.01, "unit": "µg/mL"},
      {"measurement": "EC50", "setting": "Ceratobasidium cereale [4]", "value": 0.034, "unit": "µg/mL"},
      {"measurement": "EC50", "setting": "Ceratobasidium cereale [5]", "value": 0.057, "unit": "µg/mL"},
      {"measurement": "EC50", "setting": "Ceratobasidium cereale [6]", "value": 0.074, "unit": "µg/mL"},
      {"measurement": "EC50", "setting": "Ceratobasidium cereale [7]", "value": 0.092, "unit": "µg/mL"},
      {"measurement": "EC50", "setting": "Ceratobasidium cereale [8]", "value": 0.07, "unit": "µg/mL"},
      {"measurement": "EC50", "setting": "Ceratobasidium cereale [9]", "value": 0.066, "unit": "µg/mL"},
      {"measurement": "EC50", "setting": "Ceratobasidium cereale [10]", "value": 0.082, "unit": "µg/mL"},
      {"measurement": "EC50", "setting": "Ceratobasidium cereale [11]", "value": 0.032, "unit": "µg/mL"},
      {"measurement": "EC50", "setting": "Ceratobasidium cereale [12]", "value": 0.062, "unit": "µg/mL"},
      {"measurement": "EC50", "setting": "Ceratobasidium cereale [13]", "value": 0.06, "unit": "µg/mL"},
      {"measurement": "EC50", "setting": "Ceratobasidium cereale [14]", "value": 0.037, "unit": "µg/mL"},
      {"measurement": "EC50", "setting": "Ceratobasidium cereale [15]", "value": 0.04, "unit": "µg/mL"}
    ]}
  ]
}
